target: T1, activated JNK3 (Homo sapiens, UniProt P53779); test: JNK3 inhibition, spectrophotometric coupled-enzyme assay; format: biochemical; details: activated JNK3 10 nM, 10 μM ATP, 200 μM EGF receptor peptide, 30° C.
T1 construct: One such construct encodes amino acid residues Ser40-Glu402 of JNK3α1 and is preceded by Met and Gly residues; Met-Gly (initiator Met plus Gly added for the NcoI site) (N); made in house; host or cells: E. coli BL21 (DE3)
From the text: A BLAST search of the EST database using the published JNK3α1 cDNA as a query identified an EST clone (#632588) that contained the entire coding sequence for human JNK3α1. Polymerase chain reactions (PCR) using pfu polymerase (Strategene) were used to introduce restriction sites into the cDNA for cloning into the pET-15B expression vector at the NcoI and BamHI sites. The protein was expressed in E. coli. Due to the poor solubility of the expressed full-length protein (Met 1-Gln 422), an N-terminally truncated protein starting at Ser residue at position 40 (Ser 40) was produced. This truncation corresponds to Ser 2 of JNK1 and JNK2 proteins, and is preceded by a methionine (initiation) and a glycine residue. The glycine residue was added in order to introduce an NcoI site for cloning into the expression vector. In addition, systematic C-terminal truncations were performed by PCR to identify a construct that give rise to diffraction-quality crystals. One such construct encodes amino acid residues Ser40-Glu402 of JNK3α1 and is preceded by Met and Gly residues.
5 mg of JNK3 was diluted to 0.5 mg/ml in 50 mM HEPES buffer, pH 7.5, containing 100 mM NaCl, 5 mM DTT, 20 mM MgCl2 and 1 mM ATP. GST-MKK7(DD) was added at a molar ratio of 1:2.5 GST-MKK7:JNK3. After incubation for 30 minutes at 25° C., the reaction mixture was concentrated 5-fold by ultrafiltration in a Centriprep-30 (Amicon, Beverly, Mass.), diluted to 10 ml and an additional 1 mM ATP added. This procedure was repeated three times to remove ADP and replenish ATP. The final addition of ATP was 5 mM and the mixture incubated overnight at 4° C.
The activated JNK3/GST-MKK7(DD) reaction mixture was exchanged into 50 mM HEPES buffer, pH 7.5, containing 5 mM DTT and 5% glycerol (w/v) by dialysis or ultrafiltration. The reaction mixture was adjusted to 1.1 M potassium phosphate, pH 7.5, and purified by hydrophobic interaction chromatography (at 25° C.) using a Rainin Hydropore column. […] Activated JNK3 (i.e. doubly phosphorylated JNK3) was stored at −70° C. at 0.25-1 mg/ml.
Compounds were assayed for the inhibition of JNK3 by a spectrophotometric coupled-enzyme assay. In this assay, a fixed concentration of activated JNK3 (10 nM) was incubated with various concentrations of a potential inhibitor dissolved in DMSO for 10 minutes at 30° C. in a buffer containing 0.1 M HEPES buffer, pH 7.5, containing 10 mM MgCl2, 2.5 mM phosphoenolpyruvate, 200 μM NADH, 150 μg/mL pyruvate kinase, 50 μg/mL lactate dehydrogenase, and 200 μM EGF receptor peptide. The EGF receptor peptide has the sequence […], and is a phosphoryl acceptor in the JNK3-catalyzed kinase reaction. The reaction was initiated by the addition of 10 μM ATP and the assay plate is inserted into the spectrophotometer's assay plate compartment that was maintained at 30° C. The decrease of absorbance at 340 nm was monitored as a function of time. The rate data as a function of inhibitor concentration was fitted to competitive inhibition kinetic model to determine the Ki.

T1 sequence (P53779 40-402): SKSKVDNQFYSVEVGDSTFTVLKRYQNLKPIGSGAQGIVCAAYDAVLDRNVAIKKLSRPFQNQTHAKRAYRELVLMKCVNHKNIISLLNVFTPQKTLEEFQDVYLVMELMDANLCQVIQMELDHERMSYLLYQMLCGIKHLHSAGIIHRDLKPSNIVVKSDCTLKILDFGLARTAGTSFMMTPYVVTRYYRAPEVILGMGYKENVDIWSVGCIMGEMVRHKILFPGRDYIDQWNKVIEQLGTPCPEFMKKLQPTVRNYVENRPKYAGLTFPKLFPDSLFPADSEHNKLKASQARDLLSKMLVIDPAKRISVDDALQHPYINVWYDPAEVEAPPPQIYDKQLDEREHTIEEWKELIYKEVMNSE

| Compound | Ki [nM] |
| --- | --- |
| O=C(Nc1ccccc1)c1c(Nc2ccccc2)[nH]c(=O)[nH]c1=O [Cmpd 1] | < 1000 |
| O=C(Nc1ccccn1)c1c(Nc2ccccc2)[nH]c(=O)[nH]c1=O [Cmpd 2, 2,4-Dioxo-6-phenylamino-1,2,3,4-tetrahydro-pyrimidine-5-carboxylic acid pyridin-2-ylamide] | ≥ 1000 |
| O=C(Nc1ccc(F)cc1)c1c(Nc2ccccc2)[nH]c(=O)[nH]c1=O [Cmpd 3, 2,4-dioxo-6-phenylamino-1,2,3,4-tetrahydro-pyrimidine-5-carboxylic acid (4-fluoro-phenyl)-amide] | ≥ 1000 |
| Cc1cccc(NC(=O)c2c(Nc3ccccc3)[nH]c(=O)[nH]c2=O)c1 [Cmpd 4] | ≥ 1000 |
| Cc1ccccc1Nc1[nH]c(=O)[nH]c(=O)c1C(=O)Nc1ccccc1 [Cmpd 5] | ≥ 1000 |

Now from value to compound:

| Ki [nM] | Compound |
| --- | --- |
| ≥ 1000 | Cc1ccccc1Nc1[nH]c(=O)[nH]c(=O)c1C(=O)Nc1ccc(F)cc1 [Cmpd 6] |
| ≥ 1000 | Cc1cccc(NC(=O)c2c(Nc3ccccc3C)[nH]c(=O)[nH]c2=O)c1 [Cmpd 7] |
| ≥ 1000 | O=C(Nc1ccccc1)c1c(Nc2ccc(F)cc2)[nH]c(=O)[nH]c1=O [Cmpd 8] |
| ≥ 1000 | O=C(Nc1ccc(F)cc1)c1c(Nc2ccc(F)cc2)[nH]c(=O)[nH]c1=O [Cmpd 9] |
| ≥ 1000 | Cc1cccc(NC(=O)c2c(Nc3ccc(F)cc3)[nH]c(=O)[nH]c2=O)c1 [Cmpd 10] |

Source: patent US20030100549A1, “Inhibitors of c-Jun N-terminal kinases (JNK)” (priority 1999, published 2003)
